Measurements published in article PMC3747596 (PLoS ONE, 2013).
Read-outs that look alike come from different tables or passages of the source.

What was measured:
[1] = molecular target: H2 (Homo sapiens, UniProt P25021); assay: Radioligand displacement, H2
[2] = molecular target: 5-HT6 (Homo sapiens, UniProt P50406); assay: Radioligand displacement, 5-HT6; assay type: binding
[3] = molecular target: T1, α1A-adrenoceptor (α1A-AR) (Homo sapiens, UniProt P35348); assay: Radioligand displacement, α1A; assay type: binding
T1 sequence (P35348 1-466): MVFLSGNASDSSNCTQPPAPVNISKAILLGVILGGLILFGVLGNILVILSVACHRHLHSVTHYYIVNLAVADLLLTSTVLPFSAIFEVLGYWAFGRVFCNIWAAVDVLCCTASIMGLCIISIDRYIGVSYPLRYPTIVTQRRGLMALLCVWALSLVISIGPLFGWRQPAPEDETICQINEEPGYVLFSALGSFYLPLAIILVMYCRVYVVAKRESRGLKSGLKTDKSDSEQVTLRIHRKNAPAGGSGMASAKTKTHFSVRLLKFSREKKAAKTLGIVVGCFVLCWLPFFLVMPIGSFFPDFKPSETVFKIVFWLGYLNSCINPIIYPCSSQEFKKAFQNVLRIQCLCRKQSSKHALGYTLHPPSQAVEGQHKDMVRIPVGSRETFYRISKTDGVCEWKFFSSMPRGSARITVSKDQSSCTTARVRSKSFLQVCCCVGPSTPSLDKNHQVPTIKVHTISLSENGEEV

[4] = molecular target: T2, 5-HT3 (Homo sapiens, UniProt P46098); assay: Radioligand displacement, 5-HT3; assay type: binding
T2 sequence (P46098 24-478): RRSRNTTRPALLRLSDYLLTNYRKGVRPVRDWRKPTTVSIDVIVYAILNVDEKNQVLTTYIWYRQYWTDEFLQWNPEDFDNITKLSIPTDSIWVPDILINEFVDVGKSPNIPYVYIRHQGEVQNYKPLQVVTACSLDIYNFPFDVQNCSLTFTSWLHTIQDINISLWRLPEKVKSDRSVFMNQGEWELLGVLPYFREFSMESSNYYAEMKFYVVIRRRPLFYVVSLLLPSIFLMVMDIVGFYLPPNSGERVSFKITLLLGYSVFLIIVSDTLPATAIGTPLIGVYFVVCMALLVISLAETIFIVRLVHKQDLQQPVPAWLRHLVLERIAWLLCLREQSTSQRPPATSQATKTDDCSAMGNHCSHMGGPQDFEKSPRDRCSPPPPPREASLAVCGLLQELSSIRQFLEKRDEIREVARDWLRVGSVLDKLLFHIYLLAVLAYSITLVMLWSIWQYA

[5] = Caco-2 cell monolayer permeation; conditions: human, Caco-2, pH 7.4
[6] = molecular target: SERT (Homo sapiens, UniProt P31645); assay: Radioligand displacement, SERT; assay type: binding
Sequence of SERT (P31645 whole entry): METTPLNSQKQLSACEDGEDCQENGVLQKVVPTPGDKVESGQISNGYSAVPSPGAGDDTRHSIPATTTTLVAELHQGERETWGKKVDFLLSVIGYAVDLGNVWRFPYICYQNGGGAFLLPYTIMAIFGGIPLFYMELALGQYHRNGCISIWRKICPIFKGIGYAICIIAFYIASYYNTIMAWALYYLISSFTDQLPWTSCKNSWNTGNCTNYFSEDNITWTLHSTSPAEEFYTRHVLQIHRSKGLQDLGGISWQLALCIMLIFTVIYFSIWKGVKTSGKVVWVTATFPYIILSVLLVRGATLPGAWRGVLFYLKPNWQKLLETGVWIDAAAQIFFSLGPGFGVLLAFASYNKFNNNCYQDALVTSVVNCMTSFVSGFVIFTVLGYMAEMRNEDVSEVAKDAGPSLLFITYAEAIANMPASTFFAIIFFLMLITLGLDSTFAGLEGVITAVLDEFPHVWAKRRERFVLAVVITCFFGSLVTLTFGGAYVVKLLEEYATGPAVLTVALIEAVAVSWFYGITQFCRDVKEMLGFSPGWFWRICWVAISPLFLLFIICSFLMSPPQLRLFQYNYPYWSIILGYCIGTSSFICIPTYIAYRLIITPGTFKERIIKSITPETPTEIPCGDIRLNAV

[7] = molecular target: 5-HT1e (Homo sapiens, UniProt P28566); assay: Radioligand displacement, 5-HT1e; assay type: binding
Sequence of 5-HT1e (P28566 whole entry): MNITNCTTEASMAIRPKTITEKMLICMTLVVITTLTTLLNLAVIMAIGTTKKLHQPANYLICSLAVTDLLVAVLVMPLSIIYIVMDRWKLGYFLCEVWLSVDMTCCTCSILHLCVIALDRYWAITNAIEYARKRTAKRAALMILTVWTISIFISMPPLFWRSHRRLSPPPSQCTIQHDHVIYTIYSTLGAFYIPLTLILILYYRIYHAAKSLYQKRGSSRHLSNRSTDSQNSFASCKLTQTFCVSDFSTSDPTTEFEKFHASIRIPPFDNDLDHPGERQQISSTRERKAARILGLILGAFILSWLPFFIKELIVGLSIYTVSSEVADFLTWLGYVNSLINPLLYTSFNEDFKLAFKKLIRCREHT

[8] = molecular target: 5-HT7 (Homo sapiens, UniProt P34969); assay: Radioligand displacement, 5-HT7; assay type: binding
Sequence of 5-HT7 (P34969 whole entry): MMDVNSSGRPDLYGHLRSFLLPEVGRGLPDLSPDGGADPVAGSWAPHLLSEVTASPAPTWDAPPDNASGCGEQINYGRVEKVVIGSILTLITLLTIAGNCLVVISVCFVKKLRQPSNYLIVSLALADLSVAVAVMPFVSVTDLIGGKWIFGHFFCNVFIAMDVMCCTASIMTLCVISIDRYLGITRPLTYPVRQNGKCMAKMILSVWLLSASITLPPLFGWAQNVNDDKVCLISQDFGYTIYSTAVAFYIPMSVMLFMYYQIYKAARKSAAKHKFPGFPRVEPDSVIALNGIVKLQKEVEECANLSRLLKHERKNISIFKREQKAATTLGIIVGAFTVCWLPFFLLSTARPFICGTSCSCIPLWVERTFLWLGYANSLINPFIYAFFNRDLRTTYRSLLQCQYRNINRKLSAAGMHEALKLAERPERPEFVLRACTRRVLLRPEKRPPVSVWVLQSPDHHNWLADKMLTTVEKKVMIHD

[9] = molecular target: 5-HT1b (Homo sapiens, UniProt P28222); assay: Radioligand displacement, 5-HT1b; assay type: binding
Sequence of 5-HT1b (P28222 whole entry): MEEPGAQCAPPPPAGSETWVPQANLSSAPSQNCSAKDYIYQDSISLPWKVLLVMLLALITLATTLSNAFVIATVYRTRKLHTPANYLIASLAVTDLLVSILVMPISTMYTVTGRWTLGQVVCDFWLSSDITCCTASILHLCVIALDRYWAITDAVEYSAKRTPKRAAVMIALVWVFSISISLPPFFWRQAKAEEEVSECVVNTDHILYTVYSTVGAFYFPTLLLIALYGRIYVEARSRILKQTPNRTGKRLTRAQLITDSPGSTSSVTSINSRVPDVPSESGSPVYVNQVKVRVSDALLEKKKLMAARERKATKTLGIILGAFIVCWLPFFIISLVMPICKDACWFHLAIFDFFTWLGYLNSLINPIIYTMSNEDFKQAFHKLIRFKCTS

[10] = molecular target: T3, human NOP (Homo sapiens, UniProt P41146); assay: NOP binding against [3H]N/OFQ, HEK293T membranes
T3 construct: expressed in transfected cells; host or cells: HEK293T
T3 sequence (P41146 whole entry): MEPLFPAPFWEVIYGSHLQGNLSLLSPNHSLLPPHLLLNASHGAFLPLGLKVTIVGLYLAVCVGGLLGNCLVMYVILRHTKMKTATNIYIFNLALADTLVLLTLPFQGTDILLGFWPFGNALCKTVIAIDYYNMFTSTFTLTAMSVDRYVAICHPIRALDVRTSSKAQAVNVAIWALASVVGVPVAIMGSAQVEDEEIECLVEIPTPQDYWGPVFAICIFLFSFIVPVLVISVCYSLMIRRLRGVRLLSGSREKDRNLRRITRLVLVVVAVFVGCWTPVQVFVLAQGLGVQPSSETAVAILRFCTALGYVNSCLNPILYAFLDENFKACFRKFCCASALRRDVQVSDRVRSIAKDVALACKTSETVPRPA

[11] = molecular target: GABAA; assay: Radioligand displacement, GABAA; assay type: binding; conditions: [3H] radioligand Muscimol; Rat, forebrain
[12] = molecular target: T4, σ2 (Rattus norvegicus, UniProt Q5U3Y7); assay: Radioligand displacement, σ2; assay type: binding
T4 sequence (Q5U3Y7 1-176): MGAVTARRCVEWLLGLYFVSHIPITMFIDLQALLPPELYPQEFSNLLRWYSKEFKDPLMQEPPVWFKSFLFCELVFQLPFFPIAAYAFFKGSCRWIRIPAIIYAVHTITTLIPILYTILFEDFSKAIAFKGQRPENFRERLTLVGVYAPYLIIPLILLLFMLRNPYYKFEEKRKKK

[13] = molecular target: T5, δ opioid receptor (Homo sapiens, UniProt P41143); assay: Radioligand displacement, δ; assay type: binding; conditions: K i, radioligand displacement (Table 1)
T5 construct: expressed in transfected cells

[14] = molecular target: M1-R (Homo sapiens, UniProt P11229)
Sequence of M1-R (P11229 whole entry): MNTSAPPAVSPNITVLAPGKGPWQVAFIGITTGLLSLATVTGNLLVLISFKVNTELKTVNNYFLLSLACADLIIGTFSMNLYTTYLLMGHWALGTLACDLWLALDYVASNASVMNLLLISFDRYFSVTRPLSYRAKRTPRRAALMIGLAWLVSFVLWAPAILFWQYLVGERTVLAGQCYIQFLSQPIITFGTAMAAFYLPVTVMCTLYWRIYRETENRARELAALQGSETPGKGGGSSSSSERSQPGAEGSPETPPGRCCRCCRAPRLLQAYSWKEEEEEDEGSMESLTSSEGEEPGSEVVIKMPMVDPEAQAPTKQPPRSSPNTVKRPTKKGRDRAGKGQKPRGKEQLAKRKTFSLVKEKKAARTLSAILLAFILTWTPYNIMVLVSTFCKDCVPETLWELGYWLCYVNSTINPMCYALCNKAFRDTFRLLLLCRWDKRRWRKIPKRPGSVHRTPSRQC

[15] = molecular target: H3 (Cavia porcellus, UniProt Q9JI35); assay: Radioligand displacement, H3; assay type: binding, Guinea Pig
Sequence of H3 (Q9JI35 whole entry): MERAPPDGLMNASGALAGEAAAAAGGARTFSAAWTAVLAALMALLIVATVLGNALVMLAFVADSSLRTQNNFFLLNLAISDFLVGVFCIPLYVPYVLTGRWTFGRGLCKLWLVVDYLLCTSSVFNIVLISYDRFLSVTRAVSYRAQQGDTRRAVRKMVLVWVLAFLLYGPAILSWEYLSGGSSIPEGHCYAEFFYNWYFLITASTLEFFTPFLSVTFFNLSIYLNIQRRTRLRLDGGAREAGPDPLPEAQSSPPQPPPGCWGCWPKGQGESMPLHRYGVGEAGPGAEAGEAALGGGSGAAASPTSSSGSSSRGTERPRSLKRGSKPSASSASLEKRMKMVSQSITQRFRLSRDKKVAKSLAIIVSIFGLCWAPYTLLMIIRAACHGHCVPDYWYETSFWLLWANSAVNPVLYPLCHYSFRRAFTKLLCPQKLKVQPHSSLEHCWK

[16] = molecular target: non-opioid receptors and transporters; assay: Radioligand displacement panel, non-opioid targets; conditions: read-out: K i for all non-opioid targets; 43 non-opioid targets
[17] = molecular target: D2 (Homo sapiens, UniProt P14416); assay: Radioligand displacement, D2; assay type: binding
Sequence of D2 (P14416 whole entry): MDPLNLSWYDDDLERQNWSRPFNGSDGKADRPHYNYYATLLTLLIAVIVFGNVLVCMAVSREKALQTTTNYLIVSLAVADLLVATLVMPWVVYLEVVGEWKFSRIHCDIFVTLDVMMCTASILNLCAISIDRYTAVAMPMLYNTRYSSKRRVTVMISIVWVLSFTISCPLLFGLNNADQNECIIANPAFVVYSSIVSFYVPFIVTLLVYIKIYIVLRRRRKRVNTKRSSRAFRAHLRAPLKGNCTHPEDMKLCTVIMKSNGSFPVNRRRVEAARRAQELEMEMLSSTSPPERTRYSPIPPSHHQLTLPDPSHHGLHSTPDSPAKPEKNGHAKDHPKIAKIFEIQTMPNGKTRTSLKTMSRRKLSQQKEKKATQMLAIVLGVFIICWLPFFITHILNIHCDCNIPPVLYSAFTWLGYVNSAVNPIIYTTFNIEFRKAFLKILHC

[18] = molecular target: D3 (Homo sapiens, UniProt P35462); assay: Radioligand displacement, D3; assay type: binding
Sequence of D3 (P35462 whole entry): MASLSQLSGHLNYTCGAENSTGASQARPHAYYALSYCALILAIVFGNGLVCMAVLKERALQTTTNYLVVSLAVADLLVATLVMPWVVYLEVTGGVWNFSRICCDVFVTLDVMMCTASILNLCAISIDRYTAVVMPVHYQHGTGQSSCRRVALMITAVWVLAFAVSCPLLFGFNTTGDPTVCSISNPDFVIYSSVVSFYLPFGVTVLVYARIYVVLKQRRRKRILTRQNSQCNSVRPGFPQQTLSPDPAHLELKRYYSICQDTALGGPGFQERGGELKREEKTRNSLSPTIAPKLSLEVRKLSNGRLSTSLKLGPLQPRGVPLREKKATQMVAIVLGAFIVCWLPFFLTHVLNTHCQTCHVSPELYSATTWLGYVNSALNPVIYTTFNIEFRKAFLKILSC

[19] = molecular target: T6, μ opioid receptor (Homo sapiens, UniProt P35372); assay: Radioligand displacement, μ; assay type: binding
T6 construct: expressed in transfected cells

[20] = molecular target: σ1 (Rattus norvegicus, UniProt Q9R0C9); assay: Radioligand displacement, σ1; assay type: binding
[21] = molecular target: β3 (Homo sapiens, UniProt P13945); assay: Radioligand displacement, β3; assay type: binding
[22] = system: human permeability glycoprotein (P-gp); conditions: cited from earlier work
[23] = molecular target: T3, human NOP; assay: Inhibition of cyclic AMP production by N/OFQ, GloSensor assay in HEK293T cells; assay type: cell-based
[24] = system: κ-OR; parameters: method as in ref 3 = [3]; 3 Béguin C, Cohen BM (2009) Medicinal Chemistry of Kappa Opioid Receptor Antagonists. In: Dean RL, Bilsky EJ, Negus SS, editors. Opiate Receptors and Antagonists: from Bench to Clinic. New York: Human; conditions: cited from earlier work
[25] = Ki, [3H] radioligand Prazosin, Human, Cloned
[26] = [3H] radioligand LSD, Human, Cloned, read-out: Ki
[27] = [3H] radioligand N-Methylspiperone, Human, Cloned, read-out: Ki

Sequence of 5-HT6 (P50406 whole entry): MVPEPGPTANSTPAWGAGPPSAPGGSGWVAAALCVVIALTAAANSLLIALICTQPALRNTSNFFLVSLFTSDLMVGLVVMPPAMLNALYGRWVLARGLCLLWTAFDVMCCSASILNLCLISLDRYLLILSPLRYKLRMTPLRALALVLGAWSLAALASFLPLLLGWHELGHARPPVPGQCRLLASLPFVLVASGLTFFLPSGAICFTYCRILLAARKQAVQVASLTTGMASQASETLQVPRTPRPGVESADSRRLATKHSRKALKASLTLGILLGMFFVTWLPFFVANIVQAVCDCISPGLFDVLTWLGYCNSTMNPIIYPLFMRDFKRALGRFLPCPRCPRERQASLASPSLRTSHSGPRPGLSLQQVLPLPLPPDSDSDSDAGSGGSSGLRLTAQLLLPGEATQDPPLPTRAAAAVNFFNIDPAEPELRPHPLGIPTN
Sequence of H2 (P25021 whole entry): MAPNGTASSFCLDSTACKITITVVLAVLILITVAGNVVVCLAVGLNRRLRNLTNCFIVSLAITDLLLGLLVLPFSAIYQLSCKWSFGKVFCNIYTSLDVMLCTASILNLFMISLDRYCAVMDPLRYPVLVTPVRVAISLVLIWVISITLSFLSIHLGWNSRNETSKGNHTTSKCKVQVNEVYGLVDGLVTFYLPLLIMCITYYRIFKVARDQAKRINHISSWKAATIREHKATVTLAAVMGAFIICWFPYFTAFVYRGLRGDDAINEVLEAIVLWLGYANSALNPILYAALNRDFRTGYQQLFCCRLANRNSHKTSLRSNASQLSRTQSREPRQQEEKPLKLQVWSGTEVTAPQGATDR

## N=C(N)Nc1ccc2[nH]c3c(c2c1)C[C@@]1(O)[C@H]2Cc4ccc(O)c5c4[C@@]1(CCN2CC1CC1)[C@H]3O5 [GNTI, 5′-guanidinonaltrindole]
[1]
  Ki: ≥ 10 µM
[2]
  Ki: ≥ 10 µM
[3]; 10 µM GNTI
  modulation of the displacement of [125I]HEAT by noradrenaline: did not detectably modulate
[3]; [25]
  Ki: 9.5 µM
[3]; Ki, binding curve File S1, Alpha1A Receptor, [125I]HEAT (0.03 nM), for 14674 the curve marked old
  Ki: 9.47 µM
[4]
  Ki: ≥ 10 µM
[5]
  Papp A→B at 120 min: 88 ×10⁻⁶ cm/s
  Papp B→A at 120 min: 270 ×10⁻⁶ cm/s
  efflux ratio at 120 min: 3.1
[6]
  Ki: ≥ 10 µM
[7]
  Ki: ≥ 10 µM
[8]
  Ki: ≥ 10 µM
[9]
  Ki: ≥ 10 µM
[10]
  Ki: 2.5 µM
[11]
  Ki: ≥ 10 µM
[12]
  Ki: ≥ 10 µM
[13]
  Ki: 0.058 µM
[14]; antagonism of acetylcholine, calcium mobilization, 95% CI = 3.2 to 4.3 µM
  K B: 3.7 µM
[14]; calcium mobilization
  activation of M1-R: did not activate M1-R
[14]; functional potency at κ-OR (ref 3) versus K B at M1-R
  selectivity for κ-OR over M1-R: > 3,000 fold
[15]
  Ki: ≥ 10 µM
[16]
  Ki: > 2 µM
[17]
  Ki: ≥ 10 µM
[18]
  Ki: ≥ 10 µM
[19]
  Ki: 0.054 µM
[20]
  Ki: ≥ 10 µM
[21]
  Ki: ≥ 10 µM
[22]
  substrate of human P-gp: not substrates

## CC(C)[C@@H](CN1CC[C@@](C)(c2cccc(O)c2)[C@@H](C)C1)NC(=O)[C@H]1Cc2ccc(O)cc2CN1 [JDTic]
[1]; K i, H2, radioligand displacement (Table 1)
  Ki: 1.8 µM
[1]; Ki, [3H] radioligand Tiotidine, Human, Cloned
  Ki: 1.79 µM
[1]; Ki, binding curve File S1, H2 Receptor, [3H]Tiotidine (3 nM), Histamine Binding Buffer
  Ki: 1.79 µM
[2]; [26]
  Ki: ≥ 10 µM
[23]; 95% CI = 4.6 to 1,200 nM
  K B equivalent to the pA2 for a competitive antagonist: 73 nM
[23]; JDTic 30 µM
  effect on maximally-effective concentrations of N/OFQ (>100 nM): not affected
[23]; antagonism of N/OFQ, inhibition of cyclic AMP production, read-out: pA2 (converted)
  Kb: 0.0794 µM
[3]; read-out: Ki
  Ki: ≥ 10 µM
[4]; [3H] radioligand LY278584, Human, Cloned, read-out: Ki
  Ki: ≥ 10 µM
[5]
  Papp A→B at 120 min: 60 ×10⁻⁶ cm/s
  Papp B→A at 120 min: 310 ×10⁻⁶ cm/s
[6]; [3H] radioligand Citalopram, Human, Cloned, read-out: Ki
  Ki: ≥ 10 µM
[7]; [3H] radioligand 5HT, Human, Cloned, read-out: Ki
  Ki: ≥ 10 µM
[8]; [26]
  Ki: ≥ 10 µM
[9]; [3H] radioligand GR125743, Human, Cloned, read-out: Ki
  Ki: ≥ 10 µM
[10]; NOP, displacing [3H]N/OFQ (Table 1), read-out: K i
  Ki: 0.012 µM
[11]
  Ki: ≥ 10 µM
[12]; [3H] radioligand DTG, Rat, PC12, read-out: Ki
  Ki: ≥ 10 µM
[24]
  K e in κ-OR functional assays: < 20 pM
[15]; [3H] radioligand α-methylhistamine, Guinea Pig, Cloned, read-out: Ki
  Ki: ≥ 10 µM
[17]; [27]
  Ki: ≥ 10 µM
[18]; [27]
  Ki: ≥ 10 µM
[20]; [3H] radioligand Pentazocine(+), Rat, Brain, read-out: Ki
  Ki: 1.88 µM
[20]; binding curve File S1, Sigma-1 Receptor, [3H]Pentazocine (3.0 nM), Sigma Binding Buffer, read-out: Ki
  Ki: 1.88 µM
[20]; σ1, radioligand displacement (Table 1), read-out: K i
  Ki: 1.9 µM
[21]; [3H] radioligand CGP12177, Human, Cloned, read-out: Ki
  Ki: ≥ 10 µM

## Oc1ccc2c3c1O[C@H]1c4[nH]c5c(c4C[C@@]4(O)[C@@H](C2)N(CC2CC2)CC[C@]314)C[C@@]1(O)[C@H]2Cc3ccc(O)c4c3[C@@]1(CCN2CC1CC1)[C@H]5O4 [nor-BNI, Nor-binaltorphimine]
[1]
  Ki: ≥ 10 µM
[2]
  Ki: ≥ 10 µM
[3]; [25]
  Ki: ≥ 10 µM
[4]
  Ki: ≥ 10 µM
[5]
  Papp A→B at 120 min: 51 ×10⁻⁶ cm/s
  Papp B→A at 120 min: 310 ×10⁻⁶ cm/s
[6]
  Ki: ≥ 10 µM
[7]
  Ki: ≥ 10 µM
[8]
  Ki: ≥ 10 µM
[9]
  Ki: ≥ 10 µM
[10]
  Ki: 4.4 µM
[11]
  Ki: ≥ 10 µM
[12]
  Ki: ≥ 10 µM
[15]
  Ki: ≥ 10 µM
[17]
  Ki: ≥ 10 µM
[18]
  Ki: ≥ 10 µM
[20]
  Ki: ≥ 10 µM
[21]
  Ki: ≥ 10 µM
[22]
  substrate of human P-gp: not substrates
